Assays:
Assay in all cases: biochemical
Design in all cases: KinomeScan competition binding panel (DiscoveRx), percent of control at 1 uM
Details in all cases: read-out: Percent Control
BTK = BTK (Homo sapiens, UniProt Q06187)
Summary of the method: (§1)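 KinomeScan technology used to profile binding across a panel of 456 kinases and mutants.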

CDKL5 = CDKL5 (Homo sapiens, UniProt O76039)
Summary of the method: as §1

CLK1 = CLK1 (Homo sapiens, UniProt P49759)
Summary of the method: as §1

CSF1R-autoinhibited = CSF1R-autoinhibited (Homo sapiens, UniProt P07333)
Summary of the method: as §1

DDR1 = DDR1 (Homo sapiens, UniProt Q08345)
Summary of the method: as §1

DYRK1A = DYRK1A (Homo sapiens, UniProt Q13627)
Summary of the method: as §1

DYRK2 = DYRK2 (Homo sapiens, UniProt Q92630)
Summary of the method: as §1

EGFR(E746-A750del) = EGFR(E746-A750del) (Homo sapiens, UniProt P00533, DEL746-750)
Summary of the method: as §1

[1] = target: EGFR(L747-E749del, A750P) (Homo sapiens, UniProt P00533, A750P/DEL747-749)
Summary of the method: as §1

EPHB3 = EPHB3 (Homo sapiens, UniProt P54753)
Summary of the method: as §1

ERN1 = ERN1 (Homo sapiens, UniProt O75460)
Summary of the method: as §1

FGFR3(G697C) = FGFR3(G697C) (Homo sapiens, UniProt P22607, G697C)
Summary of the method: as §1

GSK3A = GSK3A (Homo sapiens, UniProt P49840)
Summary of the method: as §1

HIPK3 = HIPK3 (Homo sapiens, UniProt Q9H422)
Summary of the method: as §1

HPK1 = target: T1, HPK1 (Homo sapiens, UniProt Q92918)
T1 construct: gene MAP4K1
Summary of the method: as §1

KIT(V559D) = KIT(V559D) (Homo sapiens, UniProt P10721, V559D)
Summary of the method: as §1

MEK1 = target: T2, MEK1 (Homo sapiens, UniProt Q02750)
T2 construct: gene MAP2K1
Summary of the method: as §1

MERTK = MERTK (Homo sapiens, UniProt Q12866)
Summary of the method: as §1

NDR1 = target: T3, NDR1 (Homo sapiens, UniProt Q15208)
T3 construct: gene STK38
Summary of the method: as §1

NLK = NLK (Homo sapiens, UniProt Q9UBE8)
Summary of the method: as §1

PKAC-alpha = target: T4, PKAC-alpha (Homo sapiens, UniProt P17612)
T4 construct: gene PRKACA
Summary of the method: as §1

PKN1 = PKN1 (Homo sapiens, UniProt Q16512)
Summary of the method: as §1

SGK2 = SGK2 (Homo sapiens, UniProt Q9HBY8)
Summary of the method: as §1

SGK3 = SGK3 (Homo sapiens, UniProt Q96BR1)
Summary of the method: as §1

SgK110 = target: T5, SgK110 (Homo sapiens, UniProt P0C264)
T5 construct: gene SBK3
Summary of the method: as §1

CSF1R-autoinhibited, sequence (P07333 whole entry): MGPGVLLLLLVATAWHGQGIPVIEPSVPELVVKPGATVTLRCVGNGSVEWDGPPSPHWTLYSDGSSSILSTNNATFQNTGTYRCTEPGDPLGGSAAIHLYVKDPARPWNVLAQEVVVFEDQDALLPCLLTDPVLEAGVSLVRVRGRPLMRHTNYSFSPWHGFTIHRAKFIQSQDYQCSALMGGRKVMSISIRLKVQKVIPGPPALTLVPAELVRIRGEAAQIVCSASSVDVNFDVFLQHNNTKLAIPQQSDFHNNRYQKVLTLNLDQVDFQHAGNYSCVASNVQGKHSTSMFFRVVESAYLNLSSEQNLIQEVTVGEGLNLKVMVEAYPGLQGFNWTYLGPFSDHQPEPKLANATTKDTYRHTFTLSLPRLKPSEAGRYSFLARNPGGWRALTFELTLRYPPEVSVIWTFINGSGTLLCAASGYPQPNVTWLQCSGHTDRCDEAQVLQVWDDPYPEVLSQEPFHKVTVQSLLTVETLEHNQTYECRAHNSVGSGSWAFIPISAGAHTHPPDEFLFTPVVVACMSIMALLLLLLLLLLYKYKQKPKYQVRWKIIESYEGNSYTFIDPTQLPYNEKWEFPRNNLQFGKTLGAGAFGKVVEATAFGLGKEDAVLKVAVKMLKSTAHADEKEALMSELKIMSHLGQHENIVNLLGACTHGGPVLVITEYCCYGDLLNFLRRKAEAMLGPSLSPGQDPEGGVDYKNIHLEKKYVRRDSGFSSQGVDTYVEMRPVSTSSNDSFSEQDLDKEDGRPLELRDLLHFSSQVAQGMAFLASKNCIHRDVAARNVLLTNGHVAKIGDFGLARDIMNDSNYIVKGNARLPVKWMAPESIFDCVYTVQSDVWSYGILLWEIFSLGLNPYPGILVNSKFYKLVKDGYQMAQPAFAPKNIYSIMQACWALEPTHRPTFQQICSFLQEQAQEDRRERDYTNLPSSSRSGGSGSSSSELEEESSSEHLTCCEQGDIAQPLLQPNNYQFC
DDR1, sequence (Q08345 whole entry): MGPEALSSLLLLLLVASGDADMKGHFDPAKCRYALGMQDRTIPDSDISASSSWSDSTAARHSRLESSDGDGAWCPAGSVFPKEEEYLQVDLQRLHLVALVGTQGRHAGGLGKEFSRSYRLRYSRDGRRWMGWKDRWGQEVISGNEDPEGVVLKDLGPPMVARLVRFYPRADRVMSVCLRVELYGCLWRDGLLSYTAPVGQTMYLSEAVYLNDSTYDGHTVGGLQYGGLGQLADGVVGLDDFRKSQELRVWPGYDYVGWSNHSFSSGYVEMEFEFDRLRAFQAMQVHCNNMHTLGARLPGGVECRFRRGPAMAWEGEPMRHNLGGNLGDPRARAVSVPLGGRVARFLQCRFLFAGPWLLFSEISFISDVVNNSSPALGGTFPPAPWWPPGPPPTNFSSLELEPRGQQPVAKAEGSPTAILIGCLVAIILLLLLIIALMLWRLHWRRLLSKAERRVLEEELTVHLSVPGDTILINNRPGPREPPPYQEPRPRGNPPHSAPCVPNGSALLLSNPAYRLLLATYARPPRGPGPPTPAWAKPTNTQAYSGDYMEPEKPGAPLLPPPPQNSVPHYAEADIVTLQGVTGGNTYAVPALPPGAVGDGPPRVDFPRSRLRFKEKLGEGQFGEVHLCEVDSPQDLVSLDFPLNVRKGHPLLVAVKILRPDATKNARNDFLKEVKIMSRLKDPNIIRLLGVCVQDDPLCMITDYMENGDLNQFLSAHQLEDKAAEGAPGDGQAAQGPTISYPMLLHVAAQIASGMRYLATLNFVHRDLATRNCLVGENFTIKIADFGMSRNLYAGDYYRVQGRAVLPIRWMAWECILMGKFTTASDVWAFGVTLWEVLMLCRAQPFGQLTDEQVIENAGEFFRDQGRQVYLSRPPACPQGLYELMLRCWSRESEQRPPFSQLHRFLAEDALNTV
T5 sequence (P0C264 whole entry): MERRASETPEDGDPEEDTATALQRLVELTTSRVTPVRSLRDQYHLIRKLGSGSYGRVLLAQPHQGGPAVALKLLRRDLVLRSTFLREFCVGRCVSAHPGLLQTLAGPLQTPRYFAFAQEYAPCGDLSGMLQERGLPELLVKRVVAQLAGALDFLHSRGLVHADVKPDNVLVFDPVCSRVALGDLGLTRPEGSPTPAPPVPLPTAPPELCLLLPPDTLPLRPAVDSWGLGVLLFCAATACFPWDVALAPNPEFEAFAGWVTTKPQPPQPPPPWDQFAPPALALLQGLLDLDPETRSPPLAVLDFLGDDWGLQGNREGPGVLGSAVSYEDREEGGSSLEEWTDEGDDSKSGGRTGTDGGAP
GSK3A, sequence (P49840 whole entry): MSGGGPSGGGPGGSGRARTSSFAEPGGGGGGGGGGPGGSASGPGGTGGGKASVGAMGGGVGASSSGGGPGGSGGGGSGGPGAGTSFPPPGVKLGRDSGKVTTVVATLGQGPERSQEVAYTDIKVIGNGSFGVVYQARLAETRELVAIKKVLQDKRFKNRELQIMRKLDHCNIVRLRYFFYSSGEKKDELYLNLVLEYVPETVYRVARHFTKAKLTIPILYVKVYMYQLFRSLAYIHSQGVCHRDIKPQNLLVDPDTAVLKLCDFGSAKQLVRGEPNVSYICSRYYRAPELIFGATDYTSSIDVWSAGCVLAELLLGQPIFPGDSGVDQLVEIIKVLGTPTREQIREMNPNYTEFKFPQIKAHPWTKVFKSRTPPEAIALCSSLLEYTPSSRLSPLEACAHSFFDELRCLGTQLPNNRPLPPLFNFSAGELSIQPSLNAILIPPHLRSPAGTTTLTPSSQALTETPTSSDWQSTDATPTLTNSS
ERN1, sequence (O75460 whole entry): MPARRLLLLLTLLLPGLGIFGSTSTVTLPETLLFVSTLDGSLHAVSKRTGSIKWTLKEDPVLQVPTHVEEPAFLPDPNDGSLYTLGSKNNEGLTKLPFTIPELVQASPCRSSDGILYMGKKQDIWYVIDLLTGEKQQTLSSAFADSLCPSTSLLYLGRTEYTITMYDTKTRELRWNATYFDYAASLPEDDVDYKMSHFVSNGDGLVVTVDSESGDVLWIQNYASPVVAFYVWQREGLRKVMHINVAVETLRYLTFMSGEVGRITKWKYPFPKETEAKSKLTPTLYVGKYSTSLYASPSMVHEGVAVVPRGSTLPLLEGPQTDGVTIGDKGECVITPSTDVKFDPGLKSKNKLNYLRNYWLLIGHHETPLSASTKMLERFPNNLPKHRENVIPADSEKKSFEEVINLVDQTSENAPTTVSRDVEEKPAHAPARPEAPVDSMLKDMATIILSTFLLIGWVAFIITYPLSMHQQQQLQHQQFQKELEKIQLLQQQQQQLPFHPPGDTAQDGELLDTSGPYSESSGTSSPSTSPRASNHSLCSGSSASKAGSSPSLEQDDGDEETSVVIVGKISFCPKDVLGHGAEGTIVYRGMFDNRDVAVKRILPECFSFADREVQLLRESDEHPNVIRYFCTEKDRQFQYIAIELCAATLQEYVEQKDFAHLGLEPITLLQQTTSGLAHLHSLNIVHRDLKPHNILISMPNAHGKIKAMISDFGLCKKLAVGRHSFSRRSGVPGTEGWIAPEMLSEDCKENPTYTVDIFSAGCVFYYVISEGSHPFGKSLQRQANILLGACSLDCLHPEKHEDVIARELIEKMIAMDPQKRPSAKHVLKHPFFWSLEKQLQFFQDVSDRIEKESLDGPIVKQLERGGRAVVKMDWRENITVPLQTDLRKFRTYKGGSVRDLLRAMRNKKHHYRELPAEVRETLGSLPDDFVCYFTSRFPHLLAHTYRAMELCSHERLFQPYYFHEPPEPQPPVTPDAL
CDKL5, sequence (O76039 whole entry): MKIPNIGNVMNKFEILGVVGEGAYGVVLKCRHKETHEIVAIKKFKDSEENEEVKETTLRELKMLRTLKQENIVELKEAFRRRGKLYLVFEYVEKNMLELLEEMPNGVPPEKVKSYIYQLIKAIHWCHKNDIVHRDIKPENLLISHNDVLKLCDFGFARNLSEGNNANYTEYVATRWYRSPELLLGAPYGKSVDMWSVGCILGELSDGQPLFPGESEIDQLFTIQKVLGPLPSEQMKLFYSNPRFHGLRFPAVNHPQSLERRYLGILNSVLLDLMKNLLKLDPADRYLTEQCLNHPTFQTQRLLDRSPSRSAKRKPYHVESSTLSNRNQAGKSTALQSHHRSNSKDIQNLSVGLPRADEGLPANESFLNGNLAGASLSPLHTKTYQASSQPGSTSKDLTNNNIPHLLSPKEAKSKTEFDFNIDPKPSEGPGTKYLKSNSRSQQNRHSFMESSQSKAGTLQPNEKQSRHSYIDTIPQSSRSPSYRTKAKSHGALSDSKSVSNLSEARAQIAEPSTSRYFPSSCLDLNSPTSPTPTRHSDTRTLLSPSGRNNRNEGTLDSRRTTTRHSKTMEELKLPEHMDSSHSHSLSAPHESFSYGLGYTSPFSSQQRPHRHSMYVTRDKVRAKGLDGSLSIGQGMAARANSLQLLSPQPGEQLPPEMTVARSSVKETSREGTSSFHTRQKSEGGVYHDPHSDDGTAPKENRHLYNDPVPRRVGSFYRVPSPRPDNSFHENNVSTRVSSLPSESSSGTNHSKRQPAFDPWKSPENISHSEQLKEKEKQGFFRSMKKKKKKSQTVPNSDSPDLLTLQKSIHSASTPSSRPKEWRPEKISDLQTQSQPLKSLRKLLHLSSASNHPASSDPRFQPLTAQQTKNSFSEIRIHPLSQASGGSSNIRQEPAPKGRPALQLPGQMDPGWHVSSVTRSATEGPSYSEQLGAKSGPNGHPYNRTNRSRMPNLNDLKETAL
T2 sequence (Q02750 whole entry): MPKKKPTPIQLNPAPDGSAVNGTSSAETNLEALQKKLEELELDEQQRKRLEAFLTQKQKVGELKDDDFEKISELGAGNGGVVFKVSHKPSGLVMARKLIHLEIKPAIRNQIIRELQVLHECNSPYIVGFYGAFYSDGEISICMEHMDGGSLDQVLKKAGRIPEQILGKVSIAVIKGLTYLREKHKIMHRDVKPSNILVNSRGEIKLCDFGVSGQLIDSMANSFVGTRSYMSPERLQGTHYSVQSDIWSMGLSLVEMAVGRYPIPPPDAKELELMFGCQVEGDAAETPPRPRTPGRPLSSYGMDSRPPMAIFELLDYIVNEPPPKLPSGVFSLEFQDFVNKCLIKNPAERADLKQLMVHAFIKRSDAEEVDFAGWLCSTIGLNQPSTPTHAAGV

Work on `C=CC(=O)Nc1cc(-n2c(=O)ccc3cnc4ccc(-n5cccn5)cc4c32)ccc1C` [CHMFL-BTK-11] yielded a remaining binding at 1 µM (BTK) of 8.2%, a remaining binding at 1 µM (CDKL5) of 100% and a remaining binding at 1 µM (CLK1) of 92%. For the same compound, the remaining binding at 1 µM (CSF1R-autoinhibited) was 70%, the remaining binding at 1 µM (DDR1) was 100% and the remaining binding at 1 µM (DYRK1A) was 100%. For the same compound, the remaining binding at 1 µM (DYRK2) was 55%, the remaining binding at 1 µM (EGFR(E746-A750del)) was 90% and the remaining binding at 1 µM [1] was 73%. It also gave a remaining binding at 1 µM (EPHB3) of 97%, a remaining binding at 1 µM (ERN1) of 76% and a remaining binding at 1 µM (FGFR3(G697C)) of 100%. It also gave a remaining binding at 1 µM (GSK3A) of 90%, a remaining binding at 1 µM (HIPK3) of 100% and a remaining binding at 1 µM (HPK1) of 94%. The remaining binding at 1 µM (KIT(V559D)) was 100%, the remaining binding at 1 µM (MEK1) was 100% and the remaining binding at 1 µM (MERTK) was 100%. The remaining binding at 1 µM (NDR1) was 68%, the remaining binding at 1 µM (NLK) was 100% and the remaining binding at 1 µM (PKAC-alpha) was 98%. The remaining binding at 1 µM (PKN1) was 100%, the remaining binding at 1 µM (SGK2) was 85% and the remaining binding at 1 µM (SGK3) was 86%. For the same compound, the remaining binding at 1 µM (SgK110) was 90%.

Source: publication PMC5428509, “Irreversible inhibition of BTK kinase by a novel highly selective inhibitor CHMFL-BTK-11 suppresses inflammatory response in rheumatoid arthritis model” (Scientific Reports, 2017)
